# Reference: PubChem BioAssay (NCI)
#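 These data come from cells grown in 96-well plates and exposed to compound for 48 hours at five concentrations. GI50 = concentration required for 50% inhibition of growth. TGI: total growth inhibition.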 Where a SMILES comes first, the peptide text is derived from it. [ ]: non-standard residue; d: D form. The star is where a group is joined. X28 = COC1=CC(=O)N(C(=O)[C@@H](O*)C(C)C)[C@H]1Cc1ccccc1; NMeL = CN[C@@H](CC(C)C)C(=O)O; Cbz = O=C(OCc1ccccc1)*
# Key:
# Assay in all cases: NCI anticancer screen, dose series, 48 h
# [1] = test system: ACHN renal
# [2] = test system: HOP-92 NSCLC
# [3] = test system: MDA-MB-435
# [4] = test system: MDA-MB-231 breast
# [5] = test system: COLO 205 colon
# [6] = test system: EKVX NSCLC
# [7] = test system: MCF7 breast
# [8] = test system: CAKI-1 renal
# [9] = test system: OVCAR-3 ovarian
# [10] = test system: NCI-H522 lung
Compound,TGI [1],TGI [2],TGI [3],TGI [4],TGI [5],TGI [6],TGI [7],TGI [8],TGI [9],TGI [10],GI50 [1],GI50 [2],GI50 [3],GI50 [4],GI50 [5],GI50 [6],GI50 [7],GI50 [8],GI50 [9],GI50 [10]
CC1=NN(c2cccc(Cl)c2)C2(C1)SCC(=O)N2c1nc2ccccc2s1 (stereo not given),79.9 µM,> 100 µM,79.7 µM,40.3 µM,32.5 µM,> 100 µM,> 100 µM,> 100 µM,58.9 µM,75.5 µM,,,,,,,,,,
Nc1nc(SCc2ccccc2[N+](=O)[O-])c2[nH]cnc2n1,> 100 µM,9.06 µM,> 100 µM,> 100 µM,> 71.7 µM,> 100 µM,> 100 µM,> 100 µM,> 100 µM,> 67.5 µM,,,,,,,,,,
O=C1O[C@H](COC(=O)c2ccccc2)[C@@H](OC(=O)c2ccccc2)C=C1OC(=O)c1ccccc1,35.3 µM,42.8 µM,69.9 µM,36.2 µM,38.3 µM,34.3 µM,91.3 µM,51.2 µM,35.9 µM,37.8 µM,,,,,,,,,,
COc1ccc(C2c3c(-c4ccccc4)nn(-c4ccccc4)c3Oc3ncn(N)c(=N)c32)cc1OC (stereo not given),3.69 µM,11 µM,4.2 µM,3.8 µM,3.53 µM,4.13 µM,3.26 µM,4.15 µM,2.95 µM,4.15 µM,,,,,,,,,,
O=S(=O)(Nc1nc(-c2cc(O)c(O)c(O)c2)cs1)c1ccc(Cl)cc1Cl,28.1 µM,> 100 µM,56.9 µM,44.9 µM,50.2 µM,33.5 µM,36.1 µM,35.5 µM,37.6 µM,34.5 µM,,,,,,,,,,
O=C(O)C1C2CCC(C2)C1c1ccccc1 (stereo not given),> 100 µM,> 100 µM,> 100 µM,> 100 µM,> 100 µM,> 100 µM,> 100 µM,> 100 µM,> 100 µM,> 100 µM,,,,,,,,,,
CCOC(=S)SC/C(=N\OC(C)(C)OC)c1ccccc1,> 100 µM,63.8 µM,65.7 µM,> 100 µM,> 100 µM,> 100 µM,> 100 µM,> 100 µM,> 100 µM,59.1 µM,,,,,,,,,,
COC(=O)C1(Cc2ccc3c(c2)CCC3)Cc2cc3c(cc2C1=O)CCC3 (stereo not given),> 46.4 µM,42.9 µM,43 µM,> 46.4 µM,29.2 µM,> 46.4 µM,> 46.4 µM,> 31.6 µM,> 46.4 µM,> 31.6 µM,,,,,,,,,,
CCCCCCCCCCOC1C(C(C)OCCCN(C)C)OC2OC3(CCCCC3)OC21 (stereo not given),31.4 µM,16.3 µM,30.3 µM,29.8 µM,14.6 µM,33 µM,42.8 µM,28 µM,29.1 µM,34 µM,,,,,,,,,,
CN(C)C(=O)CO/N=C1/C(c2c(O)[nH]c3ccccc23)=Nc2ccccc21,> 100 µM,> 100 µM,> 100 µM,> 100 µM,> 100 µM,> 100 µM,> 100 µM,> 100 µM,> 100 µM,> 100 µM,,,,,,,,,,
CN1CCN(CCCCNc2cc3c4ccccc4c(NCCCCN4CCN(C)CC4)cc3c3ccccc23)CC1,17.3 µM,28.2 µM,0.359 µM,2.89 µM,14.3 µM,18.7 µM,2.71 µM,25.6 µM,8.5 µM,6.51 µM,,,,,,,,,,
C[N+](C)(N)Cc1csc(-c2ccc(Cl)cc2)n1,> 100 µM,> 100 µM,> 100 µM,> 100 µM,> 100 µM,> 100 µM,> 100 µM,> 100 µM,> 100 µM,> 100 µM,,,,,,,,,,
CC1(C)C(C(=O)OC(C#N)c2cccc(OCC(=O)OCc3ccccc3)c2)C1(C)C (stereo not given),> 100 µM,> 100 µM,> 100 µM,> 100 µM,> 100 µM,> 100 µM,> 100 µM,> 100 µM,> 100 µM,> 100 µM,,,,,,,,,,
O=C(O)[C@H]1NC[C@@H]2ON=C(Br)[C@@H]21,> 100 µM,> 100 µM,> 100 µM,> 100 µM,> 100 µM,> 100 µM,> 100 µM,> 100 µM,> 100 µM,> 100 µM,,,,,,,,,,
CCN(CC)CCNc1ccc2nnn3c4ccc(OC(C)=O)cc4c(=O)c1c23,12.9 µM,17.7 µM,18 µM,16 µM,14.6 µM,19.3 µM,16.2 µM,3.31 µM,22.2 µM,5.92 µM,,,,,,,,,,
COc1cc(C(c2cc(OC)c(OC)c(OC)c2)N2C(=O)CCC2C(=O)O)cc(OC)c1OC (stereo not given),> 100 µM,> 100 µM,> 100 µM,> 100 µM,> 100 µM,> 100 µM,> 100 µM,> 100 µM,> 100 µM,> 100 µM,,,,,,,,,,
COc1cc(C2c3cc4c(cc3OC(N3CCOCC3)C2C)OCO4)cc(OC)c1OC (stereo not given),50.3 µM,60.2 µM,0.549 µM,37.3 µM,> 71.3 µM,> 100 µM,> 77 µM,23.3 µM,> 23 µM,9.61 µM,,,,,,,,,,
Cn1c2cc(Cl)ccc2c2ccc3c(c21)C(=O)C=CC3=O,40.9 µM,35.8 µM,> 60.1 µM,> 68.6 µM,20.7 µM,> 100 µM,50.6 µM,22.1 µM,17.1 µM,22.9 µM,,,,,,,,,,
CNc1nc(=O)c(C#N)c(-c2ccc(C)cc2)s1,> 100 µM,> 100 µM,> 100 µM,> 100 µM,> 100 µM,> 100 µM,> 100 µM,> 100 µM,> 100 µM,> 100 µM,,,,,,,,,,

Compound,TGI [1],TGI [2],TGI [3],TGI [4],TGI [5],TGI [6],TGI [7],TGI [8],TGI [9],TGI [10],GI50 [1],GI50 [2],GI50 [3],GI50 [4],GI50 [5],GI50 [6],GI50 [7],GI50 [8],GI50 [9],GI50 [10]
OC1NC2CC3NC(O)C(O)NC3CC2NC1O (stereo not given),> 100 µM,> 100 µM,> 100 µM,> 100 µM,> 100 µM,> 100 µM,> 100 µM,> 100 µM,> 100 µM,> 100 µM,,,,,,,,,,
Cc1cc2nc(NS(=O)(=O)c3cc(C)c(Cl)cc3S)[nH]c2cc1C,> 100 µM,> 100 µM,> 100 µM,> 100 µM,> 100 µM,> 100 µM,> 100 µM,> 100 µM,> 100 µM,> 100 µM,,,,,,,,,,
O=C(OCc1c(-c2ccccc2)nn(-c2ccccc2)c1COC(=O)Oc1ccccc1)Oc1ccccc1,> 100 µM,> 100 µM,> 100 µM,> 100 µM,> 100 µM,> 100 µM,> 100 µM,> 100 µM,> 100 µM,> 100 µM,,,,,,,,,,
CC(Nc1cc(=O)n(C)c(=O)[nH]1)c1ccccc1 (stereo not given),> 100 µM,> 100 µM,> 100 µM,> 100 µM,> 100 µM,> 100 µM,> 100 µM,> 100 µM,> 100 µM,> 100 µM,,,,,,,,,,
CCNC(=O)CCCCC(=O)c1c(C)[nH]c(/C=C2\N=C(c3ccc[nH]3)C=C2OC)c1C,3.34 µM,9.69 µM,7.74 µM,4.32 µM,3.65 µM,31.7 µM,4.51 µM,5 µM,3.67 µM,5.48 µM,1.8 µM,2.04 µM,2.77 µM,2.04 µM,1.97 µM,11.2 µM,1.84 µM,2.09 µM,1.85 µM,2.2 µM
CCCCCCCCC[C@@H]1C[C@@H]2CCC3C(C(=O)OCCCCNC(=O)OCc4ccccc4)=C(C)NC(=N1)N32 (stereo not given in full),12.2 µM,7.08 µM,9.82 µM,6.09 µM,2.97 µM,7.76 µM,4.72 µM,14.9 µM,14.9 µM,6.01 µM,,,,,,,,,,
COc1ccc(CCNC(=S)/N=C\C2=C(O)c3ccccc3C2=O)cc1OC,> 100 µM,8.92 µM,> 100 µM,> 100 µM,> 100 µM,> 100 µM,> 100 µM,> 100 µM,0.746 µM,> 100 µM,,,,,,,,,,
CCC(c1nc2ccccc2c(=O)n1NC(=O)C(C)(C)C)C1(O)CCCCC1 (stereo not given),> 100 µM,> 100 µM,> 100 µM,> 100 µM,> 100 µM,> 100 µM,> 100 µM,> 100 µM,> 100 µM,> 100 µM,,,,,,,,,,
CCOC(=O)c1[nH]n(-c2ccccc2)c(=O)c1C=NC(=S)C(N)=S,64.8 µM,> 100 µM,> 100 µM,> 100 µM,68.5 µM,97.7 µM,> 100 µM,> 100 µM,> 100 µM,35.5 µM,,,,,,,,,,
CCOc1ccc(C(c2c(O)c3ccccc3oc2=O)c2c(O)c3ccccc3oc2=O)cc1,> 100 µM,65.1 µM,> 100 µM,> 100 µM,> 100 µM,> 100 µM,> 100 µM,> 100 µM,> 100 µM,> 100 µM,,,,,,,,,,
N#CCCCCC12C3C(=O)N(c4ccccc4)C(=O)C3ON1O[C@@H]1C(=O)N(c3ccccc3)C(=O)[C@@H]12 (stereo not given in full),> 100 µM,> 100 µM,> 100 µM,> 100 µM,> 100 µM,> 100 µM,> 100 µM,> 100 µM,> 100 µM,> 100 µM,,,,,,,,,,
COC(=O)C(Cc1ccccc1)NC(=O)C(CCCN=C(N)N)NC(=O)OCc1ccccc1 (stereo not given),> 100 µM,> 100 µM,> 100 µM,> 100 µM,> 100 µM,> 100 µM,> 100 µM,> 100 µM,> 100 µM,> 100 µM,,,,,,,,,,
COC1=CC(=O)N(C(=O)[C@@H](OC(=O)[C@@H]2CCCN2C(=O)[C@@H]2CCCN2C(=O)[C@H](CC(C)C)N(C)C(=O)[C@@H](NC(=O)[C@@H](NC(=O)OCc2ccccc2)C(C)C)C(C)C)C(C)C)[C@H]1Cc1ccccc1 (Cbz-VV[NMeL]PP-X28),> 100 µM,> 100 µM,> 100 µM,61.9 µM,> 100 µM,> 100 µM,> 100 µM,> 100 µM,> 100 µM,> 100 µM,,,,,,,,,,
S=C1NC2=C(COC/C2=C\c2ccccc2Cl)C(c2ccccc2Cl)N1 (stereo not given),> 100 µM,> 100 µM,> 100 µM,> 100 µM,33.5 µM,> 100 µM,63.1 µM,> 100 µM,> 100 µM,> 100 µM,,,,,,,,,,
Cc1cc(NS(=O)(=O)c2ccc(NC(=O)c3cccc4c(NNc5ccc(S(N)(=O)=O)cc5)c5ccccc5nc34)cc2)no1,> 100 µM,82 µM,> 100 µM,> 100 µM,> 100 µM,> 100 µM,> 100 µM,> 100 µM,71.1 µM,72.8 µM,,,,,,,,,,
O=C(O)C1(CC(CCCN2CCCCC2)c2ccccc2)CCCC1 (stereo not given),> 100 µM,> 100 µM,> 100 µM,> 100 µM,> 100 µM,> 100 µM,> 100 µM,> 100 µM,> 100 µM,> 100 µM,,,,,,,,,,
COc1cc(C(=O)OC2CC(C)=CC[C@@]3(C)CC[C@](O)(C(C)C)C23)ccc1O (stereo not given in full),32.6 µM,30.5 µM,> 100 µM,30.5 µM,39 µM,34.6 µM,28.9 µM,30.4 µM,35.5 µM,28 µM,,,,,,,,,,
Cc1cc(O)c(/C=N/C(=O)NN)c(=O)o1,> 100 µM,> 100 µM,> 100 µM,> 100 µM,> 100 µM,> 100 µM,> 100 µM,> 100 µM,> 100 µM,> 100 µM,,,,,,,,,,
